# Assay results: patent US20140171475A1, “ANIMAL ECTOPARASITE-CONTROLLING AGENT” (SUMITOMO CHEMICAL COMPANY, LIMITED, priority 2011, published 2014)
# Key:
# Assay type in all cases: in vivo
# [1] = tested on: Haemaphysalis longicornis (young ticks) on mouse; assay: Oral administration against mouse-infested ticks; settings: test solution 20 mg/10 mL at 10 mL per 1 kg mouse body weight, 2 days after administration
# Method: The previous day of an oral administration, 30 test ticks (Haemaphysalis longicornis, young ticks) were deposited on a mouse. Before the oral administration, uninfested ticks were removed.
# The present benzylamide compound (13) (20 mg) was dissolved in dimethylformamide (680 mg), and thereto a corn oil was added to prepare a test solution (10 mL). Said test solution was orally administered to the mouse at the rate of 10 mL per 1 kg of the body weight of the mouse with a gastric sonde. To a control group, a 7% dimethylformamide/corn oil solution alone was orally administered. Each administration was repeated 3 times per group.
# Two (2) days after the administration, the number of dead ticks was examined and the mortality was calculated by the following formula:
# Mortality (%)=100×(number of dead ticks/infested ticks before oral administration)
# [2] = tested on: Ctenocephalides felies fleas on mouse; assay: Oral administration against mouse-infested fleas; settings: test solution 20 mg/10 mL at 10 mL per 1 kg mouse body weight, 2 days after flea deposition
# Method: The present benzylamide compound (13) (20 mg) was dissolved in dimethylformamide (680 mg), and thereto a corn oil was added to prepare a test solution (10 mL). Said test solution was orally administered to the mouse at the rate of 10 mL per 1 kg of the body weight of the mouse with a gastric sonde. To a control group, a 7% dimethylformamide/corn oil solution alone was orally administered. Each administration was repeated 3 times per group. After the administration, 20 test fleas (Ctenocephalides felies) were deposited on a mouse.
# Two (2) days after the deposition, the number of dead fleas was examined and the mortality was calculated by the following formula:
# Mortality (%)=100×(number of dead fleas/number of fleas tested)
# [3] = tested on: Haemaphysalis longicornis (young ticks) on dog (beagle); assay: Dropping application against dog-infested ticks; settings: dropping application 20 mg/kg
# Method: The previous day of a dropping application, 100 test ticks (Haemaphysalis longicornis, young ticks) were deposited on a dog (beagle). Before the dropping application, infested ticks were counted.
# The present […] compound (13) (1.5 g) was dissolved in diethylene glycol monoethyl ether (6.0 g) to prepare a test solution. Said test solution was directly dropped on the skin of the neck and back of the dog while pushing aside fur thereon at a rate of 0.1 ml per 1 kg of the dog's body weight (dose amount: 20 mg/kg). This is referred to as a test group. On the other hand, diethylene glycol monoethyl ether alone was applied dropwise to a placebo group.
# Two (2) days after the application, the number of living ticks, which were infesting the dogs, was examined. When the examination was completed, all infested ticks were removed from the dogs.
# Both of […] (14) days and 28 days after the application, 100 test ticks (Haemaphysalis longicornis, young ticks) were repeatedly deposited on a dog (beagle) respectively. Two (2) days after the repeated deposition, the number of living ticks, which were infesting the dogs, was examined respectively. When each of the examination was completed, all infested ticks were removed from the dogs.
# (§1) The infestation rate and control rate were calculated by the following formulae: […]
# (§2) Method of calculating infestation rate and control rate at the initial stage (2 days) after the application:
# (§3) Infestation rate (%) at X days after application=(number of living ticks at X days/number of living ticks before application)×100
# Control rate (%) at X days after application {(infestation rate of test group before application infestation rate of test group at X days)/infestation rate of test group before application}×100
# Method of calculating infestation rate and control rate at both 16 days and 30 days after the application:
# Infestation rate (%) at X days after application=(number of living ticks at X days/number of living ticks repeatedly deposited)×100 […]
# [4] = tested on: Haemaphysalis longicornis (young ticks) on dog (beagle); assay: Oral administration against dog-infested ticks; settings: oral gelatin capsule 40 mg/kg
# Method: The previous day of an oral administration, 100 test ticks (Haemaphysalis longicornis, young ticks) were deposited on a dog (beagle). Before the oral administration, infested ticks were counted.
# A gelatin capsule in which the present benzylamide compound (13) was filled into a gelatin capsule so that the amount of the present benzylamide compound […] administered was 40 mg per 1 kg of the dog's body weight was orally administered to the dog conpulsively. This is referred to as a test group. On the other hand, a geratin capsule alone was orally administered to a placebo group.
# Two (2) days after the oral administration, the number of living ticks, which were infesting the dogs, was examined. When the examination was completed, all infested ticks were removed from the dogs.
# as §1, §2, §3
# Control rate (%) at X days after application {(infestation rate of test group before application−infestation rate of test group at X days)/infestation rate of test group before application}×100 […]
# [5] = tested on: Haemaphysalis longicornis (non-blood-fed young ticks); assay: Pesticidal activity on ticks, dry film contact application test; settings: 48 h
# Method: Any one of the present benzylamide compounds (12), (13), (15), (28), (29), (30), (31), (32), (33), (34), (37) and (38) (16 μg) was dissolved in acetone (0.2 mL), and into a screw bottle (20 mL volume) this solution was dropwised and capped the bottle. Then the capped-bottle was made rolling so that the inner-surface of the screw bottle was uniformly coated with the solution. The acrew bottle was capped off and allowed to dry up for 2 hours. Into the screw bottle, test ticks (Haemaphysalis longicornis, non-blood-fed young ticks, 10 ticks/group) were added, and capped the bottle. Two (2) days later, the number of dead ticks was examined and the mortality was calculated by the following formula:
# Mortality (%)=100×(number of dead ticks/number of ticks tested)
structure (smiles),measurement,setting,value
O=C(NCc1cc(C2=NOC(c3cc(Cl)cc(Cl)c3)(C(F)(F)F)C2)ccc1Cl)C1CC1 (stereo not shown) [Compound (13)],Mortality,[1],≥ 70%
same,Mortality,[2],≥ 70%
same,"Tick control rates (%) at X days after the application, X = 2 (days)",[3]; 2 days,35%
same,"Tick control rates (%) at X days after the application, X = 16 (days)",[3]; 16 days (re-infested at 14 days),100%
same,"Tick control rates (%) at X days after the application, X = 30 (days)",[3]; 30 days (re-infested at 28 days),100%
same,Tick control rates (%) at 2 days after the administration,[4],91%
same,mortality at 16 µg/bottle,[5],≥ 90%
